Laboratory results taken from patent US9381243B2, “Methods of identifying critically ill patients at increased risk of development of organ failure and compounds for the treatment hereof” (Rigshospitalet, priority 2008, dated 2016).

Tests used:
[1] = system: patients with severe sepsis; details: cited from earlier work
[2] = depends on administration form and/or dosage; cited from earlier work
[3] = system: whole blood haemostatic activity; test: Whole blood viscoelastical assay (TEG) during Flolan infusion; format: in vivo, human; details: 6 healthy volunteers, 4 ng/kg/min IV, after 60 and 120 min infusion
Excerpt: The TEG analyzer uses a small whole blood sample in a rotating cup and a pin suspended in the blood by a torsion wire, which is monitored for motion. To speed up the clot formation, a standardized amount of an activator of coagulation (e.g. Kaolin, tissue factor) may be added to the cup just before the pin is placed in the cup. The torque of the rotating cup is transmitted to the immersed pin only after fibrin and/or fibrin-platelet bonding has linked the cup and pin together. The strength and rate of these bonds affect the magnitude of the pin motion such that strong clots move the pin directly in phase with cup motion. Thus, the TEG technology documents the interaction of platelets with the protein coagulation cascade from the time of placing the blood in the analyzer until initial fibrin formation, clot rate strengthening and fibrin-platelet bonding via GPIIb/IIIa, through eventual clot lysis. […]
With regard to the TEG assay this was performed as recommended by the manufacturer and 340 μl are mixed with 20 μl CaCl 0.2 M (final concentration 11.1 mM in the cup) and kaolin at 37° C. after which the haemostatic activity is recorded as depicted in FIG. 1.

[4] = system: platelet aggregation in whole blood; test: Whole blood platelet aggregation (Multiplate) during Flolan infusion; format: in vivo, human; details: 6 healthy volunteers, 4 ng/kg/min IV, after 60 and 120 min infusion
Procedure: Six healthy volunteers were administered flolan (prostacyclin) intravenously at a dose of 4 ng/kg/min for 2 h. Blood samples for whole blood viscoelastical assay (Thrombelastography [TEG]) and whole blood platelet aggregation (Multiplate) was obtained before infusion of Flolan, after 60 min infusion of Flolan and after 120 min infusion of Flolan.
Whole blood impedance aggregometry analyzed by the Multiple Platelet function Analyzer (MultiPlate® analyzer). Analysis employing various platelet agonists: ASPItest (activation by arachidonic acid), COLtest (activation by collagen through the collagen receptor), TRAPtest (activation by TRAP-6 stimulates the thrombin receptor on the platelet surface and ADPtest (activation by ADP stimulates platelet activation by the ADP receptors).
MultiPlate continuously records platelet aggregation. The increase of impedance by the attachment of platelets onto the Multiplate sensors is transformed to arbitrary aggregation units (AU) and plotted against time as depicted in FIG. 2.

[5] = system: critically ill patients admitted to the ICU; test: Retrospective review of haemofiltration with or without Flolan in the filters; format: in vivo, human
Procedure: Ninety-four critically ill patients admitted to the intensive care unit (ICU) underwent haemofiltration with or without concomitant Flolan (prostacyclin) treatment. Flolan was administered in a low dose of 4-6 ng/kg/min in the filters to prevent these from clotting and consequently there was only a minor spill over of Flolan to the systemic circulation. The patients were retrospectively reviewed.

[6] = Flolan 4-6 ng/kg/min in the filters, n = 24

Tifacogin: recombinant tissue factor pathway inhibitor
All cause mortality ([1]; 1754 patients, severe sepsis, vs 33.9% placebo, p=0.88): 34.2%
risk of bleeding ([1]; in vivo): increase in risk of bleeding

CC#CCC(C)[C@H](O)/C=C/[C@@H]1[C@H]2c3cccc(CCCC(=O)O)c3O[C@H]2C[C@H]1O (mixture of isomers) [Beraprost]
half time [2]: 35 to 40 min

CC#CCC(C)[C@H](O)/C=C/[C@@H]1[C@H]2C/C(=C/CCCC(=O)O)C[C@H]2C[C@H]1O (some centres unmarked) [Iloprost]
half time [2]: 20 to 30 min

CCCCC[C@H](O)/C=C/[C@@H]1[C@H]2C/C(=C/CCCC(=O)O)O[C@H]2C[C@H]1O [Flolan, prostacyclin]
TEG values (R, Angle, MA) vs baseline [3]: No significant difference
half time [2]: 0.5 to 3 min
Multiplate values (ASPI, COL, ADP, TRAP) vs baseline [4]: no significant difference
90 day survival (%) [5, 6]: 67%
Platelet count (difference before vs. after haemofiltration) [5, 6]: +14
haemostatic competence as evaluated by transfusion requirements ([5]; critically ill patients undergoing haemofiltration): does not negatively influence
mortality at 30 days ([5]; vs. 39% non-flolan, p=0.12): 21%
mortality at 90 days ([5]; vs. 53% non-flolan, p=0.10): 34%
mortality at 365 days ([5]; vs. 57% non-flolan, p=0.09): 38%

CSCCNc1nc(SCCC(F)(F)F)nc2c1ncn2[C@@H]1O[C@H](COP(=O)(O)OP(=O)(O)C(Cl)(Cl)P(=O)(O)O)[C@@H](O)[C@H]1O [cangrelor]
half time [2]: 3 to 5 min
